How the values were obtained:
[1] = Storage stability of the crystalline forms at room temperature; type: physicochemical; details: room temperature for six months
[2] = Crystalline form conversion by grinding; type: physicochemical; details: grinding at room temperature for about 10 minutes

crystalline form transformation on grinding [2]	SMILES	stability (other crystalline forms or degraded products of impurities) [1]
	CCCCC[C@H](O)CC[C@@H]1[C@H]2Cc3cccc(OCC#N)c3C[C@H]2C[C@H]1O [Form I, 2-(((1R,2R,3aS,9aS)-2-hydroxy-1-((S)-3-hydroxyoctyl)-2,3,3a,4,9,9a-hexahydro-1H-cyclopenta[b]naphthalen-5-yl)oxy)acetonitrile]	no other crystalline forms or degraded products of impurities
convert to Form I crystal	CCCCC[C@H](O)CC[C@@H]1[C@H]2Cc3cccc(OCC#N)c3C[C@H]2C[C@H]1O [Form II, 2-(((1R,2R,3aS,9aS)-2-hydroxy-1-((S)-3-hydroxyoctyl)-2,3,3a,4,9,9a-hexahydro-1H-cyclopenta[b]naphthalen-5-yl)oxy)acetonitrile]	

Source: patent US10787416B1, “Crystals of intermediate for benzindene prostaglandins and methods for preparation thereof” (CHIROGATE INTERNATIONAL INC., priority 2020, dated 2020)
